Earlier results on two molecules are cited in patent US5122608A, “Method for the preparation of substituted and unsubstituted 2,3-pyridine and quinolinedicarboxylic acids” (priority 1990, dated 1992).

In general, pKa refers to the negative logarithm of the acid dissociation constant.

Each structure is given as a SMILES string.

The conditions of this data set: ionization constant; representative mineral and organic acids.

Take `O=C(O)C(Cl)(Cl)Cl` [Trichloroacetic]: the pKa is 0.5.
With `CCc1ccc(S(=O)(=O)O)cc1` [p-Ethylbenzene sulfonic], the pKa is recorded as 0.9.
